Measured values taken from patent publication US20080262097A1, “Formulations” (priority 2005, published 2008).
Values after ≈ are worked out from the molar mass of the structure shown.

Key:
P. granulosum PRP-043 = assay: MIC assay; assay type: cell-based; conditions: P. granulosum PRP-043 (resistance MLS)
Experimental: (§1) The Propionibacterium spp organisms were cultured and maintained on Wilkins-Chalgren Anaerobe Medium (agar and broth) at pH 6.0; cultures were incubated anaerobically at 37° C. for 72 hours.
(§2) This is a standard international method for quantitatively assessing the antimicrobial activity of a compound in a liquid medium. The method used a 96-well microtitre plate, capable of holding about 200 μl of liquid per well. […] The culture media were as described above for the relevant test organisms.
(§3) The wells were inoculated with a liquid suspension of freshly grown micro-organism and incubated under the conditions described above. After incubation, the microtitre plate was examined visually (with the aid of a light box) for cell pellets in and/or opaque wells, which would indicate microbial growth. The MIC value was recorded as the lowest concentration of test compound required to inhibit microbial growth, ie, the lowest concentration for which the liquid in the well remained clear.
(§4) The assays were conducted in duplicate and included both negative (culture medium only) and positive (culture medium, diluting solvent and inoculum) controls.

P. granulosum NCTC 11865 = assay: MIC assay; assay type: cell-based; conditions: P. granulosum NCTC 11865 (resistance None)
Experimental: as §1, §2, §3, §4

P. acnes PRP-007 [1] = assay: Disc diffusion assay (DDA); assay type: cell-based, Propionibacterium acnes; conditions: zone diameter, 200 μg per disc
Experimental: as §1
(§5) A sterile paper disc was impregnated with a sample of the test compound and a minimum of 30 minutes allowed for the solvents to evaporate as far as possible. The disc was then placed on an agar plate onto which the test micro-organism had been inoculated. The plate was then incubated under the conditions described above, following which it was examined visually for signs of bacterial growth. If the test compound had antimicrobial activity, a circular zone of no growth would be obtained around the disc. The diameter of this zone of “inhibition” was measured using a ProtoCOL™ automated zone sizer (Synbiosis, Cambridge, UK). In general, a greater diameter and/or area of the zone of inhibition indicates a greater antimicrobial activity in the relevant test compound, although other factors such as test compound mobility through the agar gel may also influence the result.
(§6) The area of the zone of inhibition was calculated from the measured zone diameter (D) using the formula π(D/2)^2.

P. acnes PRP-059 [2] = assay: Disc diffusion assay (DDA); assay type: cell-based, Propionibacterium acnes; conditions: zone diameter, 200 μg per disc
Experimental: as §1, §5, §6

P. acnes PRP-003 [3] = assay: Disc diffusion assay (DDA); assay type: cell-based, Propionibacterium acnes; conditions: zone diameter, 200 μg per disc
Experimental: as §1, §5, §6

P. acnes PRP-004 [4] = assay: Disc diffusion assay (DDA); assay type: cell-based, Propionibacterium acnes; conditions: zone diameter, 200 μg per disc
Experimental: as §1, §5, §6

P. acnes PRP-101 [5] = assay: Disc diffusion assay (DDA); assay type: cell-based, Propionibacterium acnes; conditions: zone diameter, 200 μg per disc
Experimental: as §1, §5, §6

P. acnes PRP-023 [6] = assay: Disc diffusion assay (DDA); assay type: cell-based, Propionibacterium acnes; conditions: zone diameter, 200 μg per disc
Experimental: as §1, §5, §6

P. acnes PRP-002 [7] = assay: Disc diffusion assay (DDA); assay type: cell-based, Propionibacterium acnes; conditions: zone diameter, 200 μg per disc
Experimental: as §1, §5, §6

P. acnes PRP-068 [8] = assay: Disc diffusion assay (DDA); assay type: cell-based, Propionibacterium acnes; conditions: zone diameter, 200 μg per disc
Experimental: as §1, §5, §6

P. acnes PRP-102 [9] = assay: Disc diffusion assay (DDA); assay type: cell-based, Propionibacterium acnes; conditions: zone diameter, 200 μg per disc
Experimental: as §1, §5, §6

P. acnes PRP-008 [10] = assay: Disc diffusion assay (DDA); assay type: cell-based, Propionibacterium acnes; conditions: zone diameter, 200 μg per disc
Experimental: as §1, §5, §6

P. acnes PRP-026 [11] = assay: Disc diffusion assay (DDA); assay type: cell-based, Propionibacterium acnes; conditions: zone diameter, 200 μg per disc
Experimental: as §1, §5, §6

P. acnes PRP-046 [12] = assay: Disc diffusion assay (DDA); assay type: cell-based, Propionibacterium acnes; conditions: zone diameter, 200 μg per disc
Experimental: as §1, §5, §6

P. acnes PRP-007 [13] = assay: MIC assay; assay type: cell-based, Propionibacterium acnes; conditions: Cutibacterium acnes, PRP007; P. acnes PRP-007 (resistance Clin)
Experimental: as §1, §2, §3, §4

P. acnes PRP-059 [14] = assay: MIC assay; assay type: cell-based, Propionibacterium acnes; conditions: Cutibacterium acnes, PRP059; P. acnes PRP-059 (resistance MLS)
Experimental: as §1, §2, §3, §4

P. acnes PRP-003 [15] = assay: MIC assay; assay type: cell-based, Propionibacterium acnes; conditions: Cutibacterium acnes, PRP003; P. acnes PRP-003 (resistance Tet)
Experimental: as §1, §2, §3, §4

P. acnes PRP-004 [16] = assay: MIC assay; assay type: cell-based, Propionibacterium acnes; conditions: Cutibacterium acnes, PRP004; P. acnes PRP-004 (resistance Tet)
Experimental: as §1, §2, §3, §4

P. acnes PRP-101 [17] = assay: MIC assay; assay type: cell-based, Propionibacterium acnes; conditions: Cutibacterium acnes, PRP101; P. acnes PRP-101 (resistance Tet/MLS)
Experimental: as §1, §2, §3, §4

P. acnes PRP-023 [18] = assay: MIC assay; assay type: cell-based, Propionibacterium acnes; conditions: Cutibacterium acnes, PRP023; P. acnes PRP-023 (resistance MLSK)
Experimental: as §1, §2, §3, §4

P. acnes PRP-002 [19] = assay: MIC assay; assay type: cell-based, Propionibacterium acnes; conditions: Cutibacterium acnes, PRP002; P. acnes PRP-002 (resistance Tet/MLS)
Experimental: as §1, §2, §3, §4

P. acnes PRP-068 [20] = assay: MIC assay; assay type: cell-based, Propionibacterium acnes; conditions: Cutibacterium acnes, PRP068; P. acnes PRP-068 (resistance Ery)
Experimental: as §1, §2, §3, §4

P. acnes PRP-102 [21] = assay: MIC assay; assay type: cell-based, Propionibacterium acnes; conditions: Cutibacterium acnes, PRP102; P. acnes PRP-102 (resistance Tet/MLS)
Experimental: as §1, §2, §3, §4

P. acnes PRP-008 [22] = assay: MIC assay; assay type: cell-based, Propionibacterium acnes; conditions: Cutibacterium acnes, PRP008; P. acnes PRP-008 (resistance Clin)
Experimental: as §1, §2, §3, §4

P. acnes PRP-017 = assay: MIC assay; assay type: cell-based, Propionibacterium acnes; conditions: Cutibacterium acnes, PRP017; P. acnes PRP-017 (resistance MLS)
Experimental: as §1, §2, §3, §4

P. acnes PRP-026 [23] = assay: MIC assay; assay type: cell-based, Propionibacterium acnes; conditions: Cutibacterium acnes, PRP026; P. acnes PRP-026 (resistance MLS)
Experimental: as §1, §2, §3, §4

P. acnes PRP-046 [24] = assay: MIC assay; assay type: cell-based, Propionibacterium acnes; conditions: Cutibacterium acnes, PRP046; P. acnes PRP-046 (resistance None)
Experimental: as §1, §2, §3, §4

In the case of O=C(OOC(=O)c1ccccc1)c1ccccc1 [benzoyl peroxide], the MIC (P. granulosum PRP-043) is reported as 62.5 µg/mL (≈ 258 µM), the MIC (P. granulosum NCTC 11865) is reported as 15.6 µg/mL (≈ 64.4 µM) and the DDA (P. acnes PRP-007 [1]) is reported as 23.88 (±1.42) mm. The DDA (P. acnes PRP-059 [2]) was 23.49 (±0.48) mm, the DDA (P. acnes PRP-003 [3]) was 25.69 (±0.66) mm and the DDA (P. acnes PRP-004 [4]) was 31.17 (±1.02) mm. For the same compound, the DDA (P. acnes PRP-101 [5]) was 25.73 (±1.99) mm, the DDA (P. acnes PRP-023 [6]) was 24.11 (±0.65) mm and the DDA (P. acnes PRP-002 [7]) was 25.69 (±0.66) mm. The DDA (P. acnes PRP-068 [8]) was 28.79 (±0.95) mm, the DDA (P. acnes PRP-102 [9]) was 29.62 (±1.12) mm and the DDA (P. acnes PRP-008 [10]) was 27.80 (±1.29) mm. For the same compound, the DDA (P. acnes PRP-026 [11]) was 26.52 (±0.65) mm, the DDA (P. acnes PRP-046 [12]) was 24.36 (±0.36) mm and the MIC (P. acnes PRP-007 [13]) was 31.2 µg/mL (≈ 129 µM). For the same compound, the MIC (P. acnes PRP-059 [14]) was 62.5 µg/mL (≈ 258 µM), the MIC (P. acnes PRP-003 [15]) was 31.2 µg/mL (≈ 129 µM) and the MIC (P. acnes PRP-004 [16]) was 7.8 µg/mL (≈ 32.2 µM). The MIC (P. acnes PRP-101 [17]) was 15.6 µg/mL (≈ 64.4 µM), the MIC (P. acnes PRP-023 [18]) was 31.2 µg/mL (≈ 129 µM) and the MIC (P. acnes PRP-002 [19]) was 15.6 µg/mL (≈ 64.4 µM). The MIC (P. acnes PRP-068 [20]) was 62.5 µg/mL (≈ 258 µM), the MIC (P. acnes PRP-102 [21]) was 62.5 µg/mL (≈ 258 µM) and the MIC (P. acnes PRP-008 [22]) was 31.2 µg/mL (≈ 129 µM). The MIC (P. acnes PRP-017) was 31.2 µg/mL (≈ 129 µM), the MIC (P. acnes PRP-026 [23]) was 15.6 µg/mL (≈ 64.4 µM) and the MIC (P. acnes PRP-046 [24]) was 31.2 µg/mL (≈ 129 µM).
With CC(C)(C)c1cc(O)ccc1O [TBHQ, t-butyl hydroquinone] the MIC (P. granulosum PRP-043) was 15.6 µg/mL (≈ 93.9 µM), the MIC (P. granulosum NCTC 11865) was 3.9 µg/mL (≈ 23.5 µM) and the DDA (P. acnes PRP-007 [1]) was 13.43 (±2.49) mm. The DDA (P. acnes PRP-059 [2]) was 17.56 (±0.72) mm, the DDA (P. acnes PRP-003 [3]) was 38.01 (±1.02) mm and the DDA (P. acnes PRP-004 [4]) was 30.32 (±1.97) mm. The DDA (P. acnes PRP-101 [5]) was 0.0 (±0.00) mm, the DDA (P. acnes PRP-023 [6]) was 23.90 (±0.00) mm and the DDA (P. acnes PRP-002 [7]) was 28.42 (±0.95) mm. The DDA (P. acnes PRP-068 [8]) was 20.89 (±1.08) mm, the DDA (P. acnes PRP-102 [9]) was 23.80 (±0.10) mm and the DDA (P. acnes PRP-008 [10]) was 14.47 (±0.90) mm. The DDA (P. acnes PRP-026 [11]) was 8.18 (±0.72) mm, the DDA (P. acnes PRP-046 [12]) was 17.46 (±1.58) mm and the MIC (P. acnes PRP-007 [13]) was 3.9 µg/mL (≈ 23.5 µM). It also gave an MIC (P. acnes PRP-059 [14]) of 3.9 µg/mL (≈ 23.5 µM), an MIC (P. acnes PRP-003 [15]) of 7.8 µg/mL (≈ 46.9 µM) and an MIC (P. acnes PRP-004 [16]) of 1.95 µg/mL (≈ 11.7 µM). For the same compound, the MIC (P. acnes PRP-101 [17]) was 3.9 µg/mL (≈ 23.5 µM), the MIC (P. acnes PRP-023 [18]) was 3.9 µg/mL (≈ 23.5 µM) and the MIC (P. acnes PRP-002 [19]) was 3.9 µg/mL (≈ 23.5 µM). It also gave an MIC (P. acnes PRP-068 [20]) of 3.9 µg/mL (≈ 23.5 µM), an MIC (P. acnes PRP-102 [21]) of 7.8 µg/mL (≈ 46.9 µM) and an MIC (P. acnes PRP-008 [22]) of 3.9 µg/mL (≈ 23.5 µM). It also gave an MIC (P. acnes PRP-017) of 3.9 µg/mL (≈ 23.5 µM), an MIC (P. acnes PRP-026 [23]) of 3.9 µg/mL (≈ 23.5 µM) and an MIC (P. acnes PRP-046 [24]) of 1.95 µg/mL (≈ 11.7 µM).
